Measured values reported in publication PMC4741889, “Ligand-based chemoinformatic discovery of a novel small molecule inhibitor targeting CDC25 dual specificity phosphatases and displaying in vitro efficacy against melanoma cells” (Oncotarget, 2015).

Tests used:
SAN cells [1] = experiment: MTT cell growth rate, SAN melanoma cells; assay type: cell-based, human; settings: 100 μM, 72 h, MTT (not shown)
Experimental: (§1) The human melanoma cell line A2058, kindly provided by CEINGE (Naples, Italy), and SAN cells were derived from lymph nodal metastases and grown in DMEM and RPMI 1640, respectively, supplemented with 10% FBS, 2 mM L-glutamine, 100 IU/mL penicillin G, and 100 μg/mL streptomycin in humidified incubator at 37°C under 5% CO2 atmosphere. All cells were split and seeded every three days and used during the exponential phase of growth. Cell treatments were always carried after 24 h from plating.
(§2) The MTT assay was used to detect cell proliferation essentially as previously described. Briefly, A2058 and SAN cells were plated in 96-well microtiter plates (100 μL/well) at 4000 and 6000 cells/well, respectively. After 24-h seeding, cells were treated with the selected compounds added at 25, 50 or 100 μM concentration, or with 0.5% (v/v) DMSO as a vehicle control. After 24-h, 48-h or 72-h treatment, and upon the addition of 10 μL of MTT solution in the dark, the plate was incubated for 3 h at 37°C under CO2 atmosphere. After medium aspiration and solubilization of formazan crystals, absorbance was measured at 570 nm, using an ELISA plate reader (Bio-Rad, Milano, Italy).

[2] = system: PC-3 prostate cancer cell line; design: method as in PMID 22524450; settings: cited from earlier work
[3] = system: K562 leukaemia cancer cell line; design: method as in PMID 22524450; settings: cited from earlier work
A2058 cells = experiment: MTT cell growth rate, A2058 melanoma cells; assay type: cell-based, human; settings: A2058, 100 μM, 48 h, MTT
Experimental: as §1, §2

CDC25C = molecular target: T1, CDC25C (Homo sapiens, UniProt P30307); experiment: Ki from OMFP hydrolysis kinetics (Lineweaver-Burk), CDC25C; assay type: biochemical; settings: 40 nM CDC25C, 1–25 μM OMFP; mean ± S.E.; read-out: Ki CDC25C
T1 construct: Recombinant forms of the catalytic domains of CDC25A, -B and -C were obtained through the vectors pET28a-CDC25A-cd, pET28a-CDC25B-cd and pET28a-CDC25C-cd; made in house
T1 sequence (P30307 321-428 limits assumed): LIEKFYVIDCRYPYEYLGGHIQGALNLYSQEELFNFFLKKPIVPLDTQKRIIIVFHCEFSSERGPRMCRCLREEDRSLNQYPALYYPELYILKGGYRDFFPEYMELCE
Experimental: To measure the inhibition constant (Ki) of the recombinant forms of CDC25A, -B and -C towards the various inhibitors, the affinity of the different forms of CDC25 towards OMFP was measured either in the absence or in the presence of fixed concentrations of the various inhibitors. The reaction mixture contained 20 nM CDC25A, or 10 nM CDC25B, or 40 nM CDC25C, and different concentrations of the various inhibitors in 500 μL final volume of 20 mM Tris-HCl, pH 7.8, 1 mM DTT. DMSO was used as vehicle control. […] The corresponding Lineweaver-Burk plots allowed the calculation of the KM for OMFP and of the Vmax of OMFP hydrolysis, expressed as a.u./minmax. […] The Ki values were obtained from the decrease of a.u./minmax in the presence of the inhibitor, according to the equation a.u./mimmax’ = a.u./mimmax/{1 + ([I]/Ki)}, where a.u./mimmax’ represents the Vmax measured in the presence of the concentration [I] of the inhibitor. The Ki values were obtained from at least three independent experiments and reported as mean ± S.E.

[4] = system: MCF-7 breast cancer cell line; design: method as in PMID 22524450; settings: cited from earlier work
CDC25B = molecular target: T2, CDC25B (Homo sapiens, UniProt P30305); experiment: Residual phosphatase activity of recombinant CDC25B, fluorimetric OMFP assay; assay type: biochemical; settings: 10 nM CDC25B, 25 μM OMFP, read-out: CDC25B residual activity (%) in the presence of [inhibitor]
T2 construct: Recombinant forms of the catalytic domains of CDC25A, -B and -C were obtained through the vectors pET28a-CDC25A-cd, pET28a-CDC25B-cd and pET28a-CDC25C-cd; made in house
T2 sequence (P30305 431-538 limits assumed): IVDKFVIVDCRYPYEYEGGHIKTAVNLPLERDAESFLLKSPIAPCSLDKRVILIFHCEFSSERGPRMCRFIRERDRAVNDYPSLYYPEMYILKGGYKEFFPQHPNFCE
Experimental: Among the twenty-five structures identified from the multiple ligand-based chemoinformatic approach, eight compounds (2, 10, 12–14, and 16–18) were excluded from the analysis, because endowed with a strong fluorescent signal, which interfered with the emission wavelength of the synthetic substrate 3-O-methylfluorescein phosphate (OMFP) used in the fluorimetric assay. The inhibition of the phosphatase activity of CDC25B by the remaining seventeen analogs was evaluated in the presence of two different concentrations of these compounds (Table 2). […] For this reason, only one of these latter compounds, i.e. 3, was included in the following analysis.
The enzymatic activity of the catalytic domains of CDC25A, -B and -C were determined through a fluorimetric method, which monitored the dephosphorylation of the synthetic substrate OMFP, essentially as previously described. In steady-state enzyme kinetic studies, the residual phosphatase activity of purified recombinant CDC25B was measured at 30°C in the presence of different concentrations of the various inhibitors, using a computer-assisted Cary Eclipse spectrofluorimeter (Varian) equipped with an electronic temperature controller. Excitation and emission wavelengths were set at 485 and 530 nm, respectively; both excitation and emission slits were set at 10 nm. The reaction mixture contained 10 nM CDC25B and different concentrations of the various inhibitors in 500 μL final volume of 20 mM Tris-HCl, pH 7.8, 1 mM DTT. DMSO was used as vehicle control. The reaction started by the addition of 25 μM OMFP, and the formation of the fluorescent product o-methylfluorescein was monitored continuously. The rate of OMFP hydrolysis was expressed as arbitrary units per min (a.u./min). The comparison of the rates determined in the absence and in the presence of the various inhibitors allowed the calculation of the residual phosphatase activity, expressed as a percentage.

SAN cells [5] = experiment: Intracellular ROS level (DCFH-DA), SAN cells; assay type: cell-based, human; settings: SAN cells not treated with 7, 0.5 mM apocynin
Experimental: The high redox reactivity of quinonoid molecules, like compound 7, could greatly perturb the intracellular redox state. […] The oxidant effect of 7 was also evaluated after cell pre-treatment with two antioxidant molecules, such as N-acetyl-cysteine (NAC) and the specific inhibitor of NADPH oxidase, apocynin. To this aim, A2058 and SAN cells were pre-incubated for 1 h with 10 mM NAC or 45 min with 0.5 mM apocynin and then treated for 4 h with 100 μM compound 7. […] The cytotoxic activity of 7 could be mediated by the observed increase of ROS level.
The intracellular ROS level was monitored using the oxidation-sensitive fluorescence probe DCFH-DA. Cells were seeded into 6-well-plates (3 × 10^5 cells/plate) for 24 h at 37°C and then treated at various times with 100 μM compound 7 or 0.5% DMSO. DCFH-DA was added in the dark at 10 μM final concentration 30-min before the end of each incubation; then, cells were collected, washed in PBS, and finally resuspended in 500 μL PBS for fluorimetric analysis. Measurements were realized in a Cary Eclipse fluorescence spectrophotometer (Varian); excitation and emission wavelengths were set at 485 nm and 530 nm, respectively; both excitation and emission slits were set at 10 nm. The effect of 7 on ROS production was also estimated after pretreatment of cells with 10 mM NAC for 1 h.
Supplementary Figure S5: ROS production and their involvement in the apoptotic process of SAN cells, as induced by treatment with compound 7. A. Time-dependent measurement of ROS production. Cells were incubated with 0.5% DMSO (open bars) or 100 μM compound 7 (black bars) and then the intracellular ROS level was measured. B. Effect of antioxidant molecules on ROS production. The ROS level was also measured in cells untreated or pretreated with NAC or apocynin after a 4-h incubation with DMSO or 7. C. Effect of NAC on apoptosis. The PI incorporation was evaluated in cells untreated or pretreated with NAC after a 48-h incubation with DMSO or 7. ROS production was expressed as a.u., and apoptosis as a percentage. […]

Ki (CDC25C) [nM]	remaining activity at 0.2 µM (CDC25B; 0.2 μM inhibitor) [%]	remaining activity at 1 µM (CDC25B; 1 μM inhibitor) [%]	SMILES	cell growth rate (SAN cells [1])	growth of cancer cell line [2]	growth of cancer cell line [3]	cell growth rate (A2058 cells)	growth of cancer cell line [4]	basal intracellular redox state (SAN cells [5])
240 ± 130	38	2	O=C(O)CCc1c2ccc(=O)c(O)c-2oc2c(O)c(O)ccc12 [NSC 119915, reference compound]	significant reduction of cell growth rate	significantly inhibited the growth	significantly inhibited the growth	quite ineffective or caused a not significant reduction of cell growth rate	significantly inhibited the growth	
			COc1cc(C(C)=O)ccc1O [apocynin, reference compound]						raised the basal intracellular redox state
